Measured values: ChEMBL document CHEMBL5137005, “Development of Dual Inhibitors Targeting Epidermal Growth Factor Receptor in Cancer Therapy” (J Med Chem, 2022)
Each block holds one compound with its values, some of them ahead of it.

Columns and labels:
[1] = target: Nuclear factor NF-kappa-B complex (Homo sapiens, UniProt P19838+Q00653+Q04206); assay: Inhibition of NF-kappaB (unknown origin); format: protein-complex assay
KG-1 = assay: Growth inhibition of human KG-1 cells incubated for 72 hrs by MTT assay; format: functional
HT-29 = assay: Growth inhibition of human HT-29 cells incubated for 72 hrs by MTT assay; format: functional
MDA-MB-468 = assay: Growth inhibition of human MDA-MB-468 cells incubated for 72 hrs by MTT assay; format: functional
MDA-MB-231 = assay: Growth inhibition of human MDA-MB-231 cells incubated for 72 hrs by MTT assay; format: functional
[2] = target: Receptor tyrosine-protein kinase erbB-2 (Homo sapiens, UniProt P04626); assay: Inhibition of HER2 (unknown origin)
Chain of Receptor tyrosine-protein kinase erbB-2 (P04626 whole entry): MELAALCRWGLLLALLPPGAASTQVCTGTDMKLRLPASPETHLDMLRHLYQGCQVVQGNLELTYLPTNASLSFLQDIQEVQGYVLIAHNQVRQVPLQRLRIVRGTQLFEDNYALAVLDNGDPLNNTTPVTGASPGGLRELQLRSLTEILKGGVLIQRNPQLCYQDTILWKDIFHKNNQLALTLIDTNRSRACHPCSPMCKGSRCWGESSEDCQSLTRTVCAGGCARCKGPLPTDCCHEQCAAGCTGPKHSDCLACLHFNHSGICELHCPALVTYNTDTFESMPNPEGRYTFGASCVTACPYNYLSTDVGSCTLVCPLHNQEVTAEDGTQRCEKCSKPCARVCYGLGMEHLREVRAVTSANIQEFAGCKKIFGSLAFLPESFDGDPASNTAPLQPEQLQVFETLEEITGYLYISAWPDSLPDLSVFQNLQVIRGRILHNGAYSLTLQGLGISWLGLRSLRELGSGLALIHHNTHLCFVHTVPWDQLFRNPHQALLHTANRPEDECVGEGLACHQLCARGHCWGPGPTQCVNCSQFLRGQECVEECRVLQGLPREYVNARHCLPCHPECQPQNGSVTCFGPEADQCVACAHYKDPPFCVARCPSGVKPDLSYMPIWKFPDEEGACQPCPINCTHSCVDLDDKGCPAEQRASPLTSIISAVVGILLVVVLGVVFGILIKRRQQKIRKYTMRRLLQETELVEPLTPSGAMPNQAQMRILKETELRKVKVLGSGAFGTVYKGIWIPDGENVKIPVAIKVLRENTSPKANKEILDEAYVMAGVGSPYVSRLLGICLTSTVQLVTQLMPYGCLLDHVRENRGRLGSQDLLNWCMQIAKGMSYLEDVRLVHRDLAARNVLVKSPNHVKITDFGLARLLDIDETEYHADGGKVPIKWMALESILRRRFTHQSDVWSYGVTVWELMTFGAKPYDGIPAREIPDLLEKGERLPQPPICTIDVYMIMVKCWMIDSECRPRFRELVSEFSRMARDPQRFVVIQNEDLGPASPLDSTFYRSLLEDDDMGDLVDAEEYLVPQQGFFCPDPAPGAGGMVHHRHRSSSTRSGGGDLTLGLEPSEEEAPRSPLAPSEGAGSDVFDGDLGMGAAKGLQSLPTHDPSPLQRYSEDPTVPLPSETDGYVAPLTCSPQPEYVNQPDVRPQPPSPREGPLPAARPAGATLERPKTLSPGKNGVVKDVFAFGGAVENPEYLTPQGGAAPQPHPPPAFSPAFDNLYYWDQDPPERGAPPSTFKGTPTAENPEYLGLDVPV

[3] = target: T1, Epidermal growth factor receptor (Homo sapiens, UniProt P00533); assay: Inhibition of EGFR (unknown origin) by microplate reader
T1 sequence (P00533 whole entry): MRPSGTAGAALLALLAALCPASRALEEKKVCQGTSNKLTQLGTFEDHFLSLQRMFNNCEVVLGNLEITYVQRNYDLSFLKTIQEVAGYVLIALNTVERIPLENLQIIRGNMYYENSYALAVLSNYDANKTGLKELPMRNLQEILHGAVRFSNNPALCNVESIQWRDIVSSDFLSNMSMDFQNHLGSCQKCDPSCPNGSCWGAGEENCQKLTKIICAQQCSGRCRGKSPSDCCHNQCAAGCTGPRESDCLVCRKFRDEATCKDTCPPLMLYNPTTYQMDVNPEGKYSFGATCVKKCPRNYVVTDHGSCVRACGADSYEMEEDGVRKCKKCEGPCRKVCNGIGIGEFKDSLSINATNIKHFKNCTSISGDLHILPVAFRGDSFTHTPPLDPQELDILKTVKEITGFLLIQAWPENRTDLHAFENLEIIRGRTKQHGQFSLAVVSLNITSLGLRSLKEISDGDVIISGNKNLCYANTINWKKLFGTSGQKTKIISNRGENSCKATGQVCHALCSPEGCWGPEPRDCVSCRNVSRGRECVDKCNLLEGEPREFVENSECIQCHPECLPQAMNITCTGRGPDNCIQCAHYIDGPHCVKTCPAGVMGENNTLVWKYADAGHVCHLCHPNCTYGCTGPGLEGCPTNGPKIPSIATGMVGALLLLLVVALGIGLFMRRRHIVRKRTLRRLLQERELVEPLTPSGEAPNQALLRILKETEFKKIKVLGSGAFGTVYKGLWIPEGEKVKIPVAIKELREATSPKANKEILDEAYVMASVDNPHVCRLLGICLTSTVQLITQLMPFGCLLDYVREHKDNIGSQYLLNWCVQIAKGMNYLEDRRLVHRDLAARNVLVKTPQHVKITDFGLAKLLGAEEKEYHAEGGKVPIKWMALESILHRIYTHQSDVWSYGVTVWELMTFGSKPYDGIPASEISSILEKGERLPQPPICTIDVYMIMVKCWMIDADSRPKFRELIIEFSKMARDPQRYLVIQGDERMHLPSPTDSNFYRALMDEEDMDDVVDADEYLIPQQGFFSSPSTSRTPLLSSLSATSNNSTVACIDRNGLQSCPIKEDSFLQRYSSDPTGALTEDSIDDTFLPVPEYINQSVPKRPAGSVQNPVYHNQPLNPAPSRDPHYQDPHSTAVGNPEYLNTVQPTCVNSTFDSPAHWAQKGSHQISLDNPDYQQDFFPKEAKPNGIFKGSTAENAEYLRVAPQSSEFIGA

Tubulin [4] = assay: Inhibition of tubulin polymerization (unknown origin) by measuring absorbance; format: protein-complex assay, Homo sapiens
NCI-H1975 = assay: Antiproliferative activity against human H1975 cells overexpressing EGFR T790M/L858R assessed as cell growth inhibition incubated for 24 hrs; format: functional
MCF7 [5] = assay: Antiproliferative activity against human MCF7 cells overexpressing HER2 assessed as cell growth inhibition incubated for 24 hrs; format: functional
A-431 [6] = assay: Antiproliferative activity against human A-431 cells overexpressing wildtype EGFR assessed as cell growth inhibition incubated for 24 hrs; format: functional
[7] = target: T2, Protein deacetylase HDAC6 (Homo sapiens, UniProt Q9UBN7); assay: Inhibition of HDAC6 (unknown origin)
T2 sequence (Q9UBN7 whole entry): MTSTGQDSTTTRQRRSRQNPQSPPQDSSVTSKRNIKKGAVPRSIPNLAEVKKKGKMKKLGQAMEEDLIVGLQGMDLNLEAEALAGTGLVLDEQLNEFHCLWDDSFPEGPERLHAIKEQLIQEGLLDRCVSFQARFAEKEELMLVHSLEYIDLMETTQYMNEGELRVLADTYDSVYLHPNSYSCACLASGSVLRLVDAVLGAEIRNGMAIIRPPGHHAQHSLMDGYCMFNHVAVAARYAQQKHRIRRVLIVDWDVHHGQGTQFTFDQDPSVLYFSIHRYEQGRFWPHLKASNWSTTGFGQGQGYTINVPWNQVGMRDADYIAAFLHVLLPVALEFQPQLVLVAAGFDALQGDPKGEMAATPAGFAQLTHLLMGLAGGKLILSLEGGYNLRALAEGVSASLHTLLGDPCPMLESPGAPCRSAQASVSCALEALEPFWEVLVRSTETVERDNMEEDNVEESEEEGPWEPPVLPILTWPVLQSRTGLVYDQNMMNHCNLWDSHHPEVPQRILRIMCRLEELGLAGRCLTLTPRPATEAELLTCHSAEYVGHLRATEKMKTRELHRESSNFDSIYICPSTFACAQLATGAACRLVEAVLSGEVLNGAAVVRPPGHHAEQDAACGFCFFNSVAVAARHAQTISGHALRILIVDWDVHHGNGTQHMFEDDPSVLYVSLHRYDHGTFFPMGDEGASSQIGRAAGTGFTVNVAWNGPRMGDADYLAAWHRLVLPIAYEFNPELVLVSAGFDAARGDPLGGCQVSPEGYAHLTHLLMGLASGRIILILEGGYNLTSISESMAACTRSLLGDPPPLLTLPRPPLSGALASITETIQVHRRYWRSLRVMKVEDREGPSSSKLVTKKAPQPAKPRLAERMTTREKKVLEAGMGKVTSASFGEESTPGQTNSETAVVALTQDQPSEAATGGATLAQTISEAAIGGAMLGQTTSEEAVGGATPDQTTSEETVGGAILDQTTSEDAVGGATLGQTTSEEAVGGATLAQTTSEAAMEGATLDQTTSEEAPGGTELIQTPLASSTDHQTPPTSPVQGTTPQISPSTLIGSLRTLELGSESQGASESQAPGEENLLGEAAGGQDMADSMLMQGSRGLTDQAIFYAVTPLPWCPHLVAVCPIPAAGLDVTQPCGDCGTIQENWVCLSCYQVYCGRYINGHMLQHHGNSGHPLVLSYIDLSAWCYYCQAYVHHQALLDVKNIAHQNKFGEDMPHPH

[8] = target: T1, Epidermal growth factor receptor; assay: Inhibition of EGFR (unknown origin)
Histone deacetylase 1 [9] = target: T3, Histone deacetylase 1 (Homo sapiens, UniProt Q13547); assay: Inhibition of HDAC1 (unknown origin)
T3 sequence (Q13547 whole entry): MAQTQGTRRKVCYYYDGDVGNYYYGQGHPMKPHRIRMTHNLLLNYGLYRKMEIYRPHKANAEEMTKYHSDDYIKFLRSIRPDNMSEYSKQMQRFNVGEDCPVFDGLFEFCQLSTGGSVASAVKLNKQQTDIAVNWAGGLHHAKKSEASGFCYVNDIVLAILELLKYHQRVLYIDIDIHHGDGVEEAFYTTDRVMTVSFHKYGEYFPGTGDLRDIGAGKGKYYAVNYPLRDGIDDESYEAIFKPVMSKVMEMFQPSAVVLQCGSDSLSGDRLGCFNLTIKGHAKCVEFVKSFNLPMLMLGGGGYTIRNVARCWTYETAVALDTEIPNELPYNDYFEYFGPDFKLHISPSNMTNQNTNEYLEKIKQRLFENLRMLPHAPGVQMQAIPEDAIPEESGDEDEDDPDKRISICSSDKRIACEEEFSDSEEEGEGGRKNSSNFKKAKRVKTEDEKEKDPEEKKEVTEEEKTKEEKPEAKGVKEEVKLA

Tubulin [10] = assay: Inhibition of tubulin polymerization (unknown origin); format: protein-complex assay, Homo sapiens
Histone deacetylase 1 [11] = target: T3, Histone deacetylase 1; assay: Inhibition of human recombinant HDAC1 expressed in insect High5 cells using baculovirus expression system using Ac-Lys-Tyr-Lys (epsilon-acetyl)-AMC as substrate incubated for 24 hrs by multilabel plate reader method; set-up: species or system BTI-TN-5B1-4
[12] = target: T1, Epidermal growth factor receptor; assay: Inhibition of EGFR (unknown origin) using synthetic biotinylated peptide as substrate […] by microplate reader method relative to control
Histone deacetylase 3 = Histone deacetylase 3 (Homo sapiens, UniProt O15379); assay: Inhibition of human recombinant HDAC3 expressed in insect High5 cells using baculovirus expression system using Ac-Lys-Tyr-Lys (epsilon-acetyl)-AMC as substrate incubated for 24 hrs by multilabel plate reader method; set-up: species or system BTI-TN-5B1-4
Chain of Histone deacetylase 3 (O15379 whole entry): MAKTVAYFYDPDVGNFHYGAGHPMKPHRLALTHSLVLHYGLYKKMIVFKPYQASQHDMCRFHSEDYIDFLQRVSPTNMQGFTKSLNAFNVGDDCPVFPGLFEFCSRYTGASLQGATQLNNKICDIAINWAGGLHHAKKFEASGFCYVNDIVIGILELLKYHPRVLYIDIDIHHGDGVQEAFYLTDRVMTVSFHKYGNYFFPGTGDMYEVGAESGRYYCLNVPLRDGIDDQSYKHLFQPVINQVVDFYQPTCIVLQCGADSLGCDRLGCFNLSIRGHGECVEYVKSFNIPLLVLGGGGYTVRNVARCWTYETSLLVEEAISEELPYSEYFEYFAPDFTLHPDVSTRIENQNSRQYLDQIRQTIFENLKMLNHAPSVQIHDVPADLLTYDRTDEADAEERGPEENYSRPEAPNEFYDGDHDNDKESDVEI

[13] = target: T2, Protein deacetylase HDAC6; assay: Inhibition of human recombinant HDAC6 expressed in insect High5 cells using baculovirus expression system using Boc-Lys (epsilon-acetyl)-AMC as substrate incubated for 3 hrs by multilabel plate reader method; set-up: species or system BTI-TN-5B1-4
[14] = target: Fibroblast growth factor receptor 4 (Homo sapiens, UniProt P22455); assay: Inhibition of FGFR4 (unknown origin) using biotin as substrate incubated for 2 hrs by HTRF assay
[15] = target: T1, Epidermal growth factor receptor; assay: Inhibition of EGFR (unknown origin) using biotin as substrate incubated for 2 hrs by HTRF assay
A-431 [16] = assay: Growth inhibition of human A-431 cells; format: functional
A549 = assay: Growth inhibition of human A549 cells; format: functional
MCF7 [17] = assay: Growth inhibition of human MCF7 cells; format: functional
Histone deacetylase = assay: Inhibition of HDAC in human HeLa cell nuclear extract using fluorogenic Boc-Lys(acetyl)-AMC as substrate preincubated for 5 mins followed by addition of substrate measured after 20 mins by microplate reader; format: cell-free

Chain of Nuclear factor NF-kappa-B complex (P19838 1-433 limits assumed): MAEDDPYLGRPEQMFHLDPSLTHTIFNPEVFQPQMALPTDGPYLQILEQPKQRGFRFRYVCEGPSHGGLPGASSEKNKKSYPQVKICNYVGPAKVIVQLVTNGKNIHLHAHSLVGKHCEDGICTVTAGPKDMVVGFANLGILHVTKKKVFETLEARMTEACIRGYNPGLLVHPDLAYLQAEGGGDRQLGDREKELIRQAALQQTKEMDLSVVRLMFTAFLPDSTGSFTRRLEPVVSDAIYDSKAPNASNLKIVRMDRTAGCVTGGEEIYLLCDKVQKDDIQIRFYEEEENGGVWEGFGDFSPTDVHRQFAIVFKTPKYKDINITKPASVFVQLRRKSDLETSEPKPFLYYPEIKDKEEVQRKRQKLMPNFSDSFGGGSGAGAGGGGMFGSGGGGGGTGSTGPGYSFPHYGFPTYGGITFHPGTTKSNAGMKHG
Chain of Nuclear factor NF-kappa-B complex (Q00653 1-454 limits assumed): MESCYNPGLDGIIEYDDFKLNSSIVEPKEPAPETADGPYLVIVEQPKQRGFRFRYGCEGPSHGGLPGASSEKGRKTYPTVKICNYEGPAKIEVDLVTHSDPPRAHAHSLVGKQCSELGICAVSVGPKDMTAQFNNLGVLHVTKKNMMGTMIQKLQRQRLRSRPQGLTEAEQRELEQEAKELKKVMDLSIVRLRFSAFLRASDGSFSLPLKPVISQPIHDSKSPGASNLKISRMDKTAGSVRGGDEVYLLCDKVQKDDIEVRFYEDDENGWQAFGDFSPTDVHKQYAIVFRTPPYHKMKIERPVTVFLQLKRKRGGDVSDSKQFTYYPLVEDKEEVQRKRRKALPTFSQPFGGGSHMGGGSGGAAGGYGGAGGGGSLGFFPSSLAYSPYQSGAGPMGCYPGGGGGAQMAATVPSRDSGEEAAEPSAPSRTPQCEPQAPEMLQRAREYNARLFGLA
Chain of Nuclear factor NF-kappa-B complex (Q04206 whole entry): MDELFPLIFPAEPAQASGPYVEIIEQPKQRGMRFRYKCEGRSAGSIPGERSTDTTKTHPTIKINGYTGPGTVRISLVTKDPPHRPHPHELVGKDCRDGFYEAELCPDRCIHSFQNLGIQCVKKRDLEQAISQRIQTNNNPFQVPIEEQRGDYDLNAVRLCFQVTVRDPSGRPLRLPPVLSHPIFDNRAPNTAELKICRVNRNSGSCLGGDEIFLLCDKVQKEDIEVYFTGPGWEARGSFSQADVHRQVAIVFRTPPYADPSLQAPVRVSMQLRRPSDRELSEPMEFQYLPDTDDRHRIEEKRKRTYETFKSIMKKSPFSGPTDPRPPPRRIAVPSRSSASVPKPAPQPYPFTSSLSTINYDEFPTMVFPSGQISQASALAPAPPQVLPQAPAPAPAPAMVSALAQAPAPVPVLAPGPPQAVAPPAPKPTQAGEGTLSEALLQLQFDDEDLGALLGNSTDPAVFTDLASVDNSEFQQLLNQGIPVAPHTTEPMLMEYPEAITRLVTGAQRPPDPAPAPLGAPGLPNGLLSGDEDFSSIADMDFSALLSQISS

IC50 [1]: 300 nM
SMILES: Fc1cc(F)cc(NC(=S)Nc2ccc3ncnc(Nc4cccc(Cl)c4)c3c2)c1

GI50 (HT-29): 790 nM | GI50 (MDA-MB-468): 230 nM | GI50 (MDA-MB-231): 600 nM
SMILES: COc1cc(NC(=O)CCCCCCC(=O)NO)ccc1Nc1nccc(-c2cn(C)c3ccccc23)n1
GI50 (KG-1): 240 nM

IC50 [2]: 30 nM
SMILES: Cc1c(NC(=O)OC[C@@H]2COCCN2)cn2ncnc(Nc3ccc4c(cnn4Cc4cccc(F)c4)c3)c12 [AC-480]

IC50 [3]: 86.7 nM | IC50 (Tubulin [4]): 10700 nM
SMILES: CCOCCSc1nc(-c2ccccc2Cl)nn1CCOCC

IC50 [1]: 4100 nM
SMILES: S=C(NCc1ccccc1)Nc1ccc2ncnc(Nc3cccc(Br)c3)c2c1

GI50 (NCI-H1975): 127 nM | GI50 (MCF7 [5]): 94 nM | GI50 (A-431 [6]): 41 nM
SMILES: CC(C)(O)CC(=O)NCCc1ccc2ncnc(Nc3ccc(Oc4cccc(C(F)(F)F)c4)c(Cl)c3)c2c1

IC50 [7]: 4.3 nM | IC50 [8]: 10.3 nM | IC50 (Histone deacetylase 1 [9]): 1.1 nM
SMILES: O=C(CCCCn1cc(-c2ccc3ncnc(Nc4ccccc4F)c3c2)nn1)NO

IC50 (Tubulin [10]): > 20000 nM
SMILES: COc1ccc(N(C)c2nc(N)nc3c(Cc4ccccc4)c[nH]c23)cc1

IC50 (Histone deacetylase 1 [11]): 160 nM | inhibition [12]: 9.7% | IC50 (Histone deacetylase 3): 180 nM | IC50 [13]: 560 nM
SMILES: COc1cc2ncnc(Nc3cccc(/C=C/C(=O)NO)c3)c2cc1OCCCN1CCOCC1

IC50 [1]: 600 nM
SMILES: FC(F)(F)c1csc(NC(=S)Nc2ccc3ncnc(Nc4cccc(Cl)c4)c3c2)n1

IC50 [14]: 86.2 nM | IC50 [15]: 83.9 nM
SMILES: COc1cc2ncnc(Oc3ccc(NC(=O)Nc4cccc(C(F)(F)F)c4)c4ccccc34)c2cc1OC

IC50 (Tubulin [10]): 710 nM
SMILES: COc1cc(Nc2ncnc3cc(-c4ccc(C)cc4)sc23)cc(OC)c1OC

IC50 [3]: 85.4 nM | IC50 (Tubulin [10]): 87.6 nM
SMILES: O=C(Nc1ccccc1C(=O)N/N=C/c1ccc(O)cc1O)c1ccco1

IC50 [3]: 31.2 nM | IC50 (Tubulin [10]): 108 nM
SMILES: NS(=O)(=O)c1ccc(NC(=O)c2ccccc2NC(=O)c2ccco2)cc1

IC50 [2]: 6 nM
SMILES: CCN1CCN(Cc2ccc(-c3cc4c(N[C@H](C)c5ccccc5)ncnc4[nH]3)cc2)CC1 [AEE-788]

IC50 [8]: 90 nM
SMILES: COc1ccc(/C=C\C(=O)c2ccc(Br)c3cc(-c4ccc(F)cc4)oc23)cc1

GI50 (A-431 [16]): 670 nM | GI50 (A549): 1640 nM | GI50 (MCF7 [17]): 490 nM
SMILES: O=C(Nc1ccc2ncnc(Nc3cccc(Br)c3)c2c1)c1ccc(C(F)(F)F)cc1O

IC50 [8]: 120 nM
SMILES: O=C(/C=C\c1ccc(OC(F)(F)F)cc1)c1ccc(Br)c2cc(-c3ccc(F)cc3)oc12

IC50 (Histone deacetylase): 105 nM
SMILES: Cn1cc(-c2ccnc(Nc3ccc(C(=O)NCCCCCCC(=O)NO)cc3)n2)c2ccccc21
